Values of other authors, collected in US12070444B2, “Modulation of molecular markers using S-equol” (Board of Regents, The University of Texas System, priority 2020, dated 2024).
Read-outs that look alike come from different tables or passages of the source.

Columns and labels:
Ki67 expression = conditions: IMPACT trial; cited from earlier work
TNBC = conditions: cited from earlier work
[1] = system: tumor resistance to ICB immunotherapy; conditions: recent report (Huang, 2020); cited from earlier work

CC/C(=C(\c1ccccc1)c1ccc(OCCN(C)C)cc1)c1ccccc1 [tamoxifen]
change in the geometric mean of Ki67 expression after two weeks (Ki67 expression): −59.5%

CC(C)(C#N)c1cc(Cn2cncn2)cc(C(C)(C)C#N)c1 [anastrazole]
change in the geometric mean of Ki67 expression after two weeks (Ki67 expression): −76%

avelumab
response rate (TNBC; 168 TNBC tumors unselected for PD-L1 expression (Dirix et al. 2015)): 8.6%

Oc1ccc([C@@H]2Oc3ccc(O)cc3[C@@H]3CCC[C@@H]32)cc1 [LY500307]
effect on tumor resistance to ICB immunotherapy [1]: overcoming tumor resistance to ICB immunotherapy

pembrolizumab
response rate (TNBC; Phase 1 study, 27 women, heavily pretreated chemotherapy resistant metastatic TNBC expressing PD-L1 (Nanda et al. 2016)): 18.4%

atezolizumab
response rate (TNBC; 21 evaluable, PD-L1 expressing TNBC tumors (Emens et al. 2015)): 19%
